According to patent publication US8992603B2, “Coated devices and method of making coated devices that reduce smooth muscle cell proliferation and platelet activity” (Nanocopoeia, Inc., priority 2007, dated 2015):
Where two headings read alike, the source gives them in different places.

Columns and labels:
[1] = system: mouse carotid artery injury model; test: mouse carotid artery injury model, neointimal area; type: in vivo; conditions: female B6.129 mice, high fat diet, oral 50 mg/kg resveratrol, 10 mg/kg quercetin or both, 2 weeks before and 2 weeks after injury
Experimental: FIG. 9 is a bar chart showing the effects of oral administration with 50 mg/kg resveratrol (RESV), 10 mg/kg quercetin (QUER), or resveratrol plus quercetin on neointimal areas in mice subjected to the carotid artery injury procedure. Values represent means+SEM. […] Neointimal area was determined by subtracting the luminal area from the area encircled by the internal elastic lamina. Determining whether quercetin potentiates the vascular protective effects of resveratrol in vivo, utilizing a mouse carotid artery injury model. Female B6.129 mice were administered a high fat diet, in some cases mixed together with 50 mg/kg resveratrol (RESV), 10 mg/kg quercetin (QUER), or resveratrol plus quercetin, for 2 weeks. The carotid artery injury procedure was conducted and the animals were fed the high fat diet plus polyphenols for an additional two weeks. The animals were then sacrificed, and the carotid arteries were excised and assessed for neointimal areas.

platelets = test: platelet activation, tritiated serotonin release after ADP; type: cell-based, human; conditions: 3 h, 5 μM ADP
Experimental: Values represent means+/−standard error.
To determine the efficacy of these compounds in reducing platelet activation, platelets isolated from healthy, male donors were incubated with resveratrol, quercetin, or resveratrol plus quercetin. The doses were selected based on prior studies.

platelet activation = test: thromboxane B2 levels in mouse carotid artery injury model; type: in vivo; conditions: 4 weeks oral, 50 mg/kg resveratrol, 10 mg/kg quercetin or both, B6.129 mice
Experimental: Plasma levels of thromboxane B2 (TBX2), a known marker for platelet activation, were assessed.

macrophages [2] = test: LPS-stimulated macrophage activation, iNOS protein; type: cell-based
Experimental: To test the efficacy of a resveratrol/quercetin combination in inhibiting the activation of macrophages, effects of polyphenol treatments either alone or in combination with quercetin were assessed in cultures of lipopolysaccharide (LPS) stimulated macrophages. Macrophage activation was determined by increases in protein levels of inducible nitric oxide synthase (iNOS) and by levels of reactive oxygen species (ROS).

macrophages [3] = test: LPS-stimulated macrophage activation, nitric oxide release, isobologram; type: cell-based; conditions: CalcuSyn, read-out: IC50 macrophage activation, individual treatments
Experimental: Macrophages were incubated with differing dose ratios of resveratrol:quercetin and were stimulated with LPS. Activation was assessed as increases in nitric oxide release. The IC50's for each dose ratio were calculated using CaluSyn software and were used to plot the isobologram. The line depicted above indicates the point at which additive responses are observed (C1=1). Points lying above the line indicate antagonism, whereas points below the line represent synergism.
Isobolograms for the determination of synergistic dose ratios for a resveratrol/quercetin combination. To determine the dose ratios for achieving maximal synergistic effects, activation in LPS-stimulated cells macrophages incubated with constant dose ratios of resveratrol and quercetin was measured. The IC50 for each dose ratio was calculated using CalcuSyn software, and these concentrations were used to construct an isobologram (FIG. 13). […] Briefly, CI=1 denotes additive effects, CI>1 denotes antagonism, and CI<1 indicates synergism.

VSMC [4] = test: BrdU proliferation assay of VSMC with drug-eluting flats; type: cell-based; conditions: 48 hours elution
Experimental: Bare metal flats coated with resveratrol—(FIG. 17A) or quercetin—(FIG. 17B) containing arbIBS of either a closed or an open morphology were incubated in semi-permeable transwell inserts in plates containing VSMC. The bromodeoxyuridine (BrdU) incorporation assay for cell proliferation was conducted after 48 h of drug elution. […] The polyisobutylene-polystyrene triblock copolymers coated flats containing resveratrol or quercetin were incubated in semi-permeable transwell inserts in plates containing VSMC.

[5] = cited from earlier work
VSMC [6] = test: VSMC proliferation (DNA synthesis, cell number); type: cell-based; conditions: Rattus norvegicus
[7] = resveratrol release from polymer-coated flats (HPLC); type: physicochemical
Experimental: Polymer coated flats were incubated in medium at 37° C. for 28 d. Resveratrol concentration in the medium was assessed at 2 d intervals using high performance liquid chromatography. The data are expressed as means+/−standard error for cumulative release in micromolar concentrations (FIG. 18A) compared to a percent of total drug loaded (FIG. 18B).
Determination of resveratrol release was performed using reversed phase high performance liquid chromatography (HPLC) coupled to a 4-channel Coularray electrochemical detector run at 590, 660, 730, and 800 mV. […] Establishing biocompatibility is a critical step in the development of the stent models.

NFκB = NFκB activation in vascular smooth muscle cells; type: cell-based
Description: FIG. 3 is a bar chart showing the effect of resveratrol on NFκB activation in vascular smooth muscle cells

ER-alpha = molecular target: T1, ER-alpha (Homo sapiens, UniProt P03372); conditions: same binding site as estradiol; cited from earlier work
T1 sequence (P03372 1-595): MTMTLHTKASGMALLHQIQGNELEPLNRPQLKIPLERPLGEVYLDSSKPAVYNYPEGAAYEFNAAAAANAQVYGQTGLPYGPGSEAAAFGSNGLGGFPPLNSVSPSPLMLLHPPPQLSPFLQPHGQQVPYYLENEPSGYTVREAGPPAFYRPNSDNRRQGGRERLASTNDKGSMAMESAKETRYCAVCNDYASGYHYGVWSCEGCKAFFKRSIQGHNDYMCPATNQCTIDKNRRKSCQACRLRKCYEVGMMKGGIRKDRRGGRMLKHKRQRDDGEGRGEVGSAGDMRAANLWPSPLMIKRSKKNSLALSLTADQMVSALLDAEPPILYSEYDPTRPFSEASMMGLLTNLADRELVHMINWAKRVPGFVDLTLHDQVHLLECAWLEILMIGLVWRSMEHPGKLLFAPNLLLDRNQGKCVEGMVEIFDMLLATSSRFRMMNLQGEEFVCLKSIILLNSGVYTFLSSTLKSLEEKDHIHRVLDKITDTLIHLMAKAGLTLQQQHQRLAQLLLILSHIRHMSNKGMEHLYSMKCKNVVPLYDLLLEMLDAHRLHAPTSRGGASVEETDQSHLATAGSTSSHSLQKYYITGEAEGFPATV

## O=c1c(O)c(-c2ccc(O)c(O)c2)oc2cc(O)cc(O)c12 [quercetin, 2-(3,4-dihydroxyphenyl)-3,5,7-trihydroxy-4H-1-benzopyran-4-one]
[1]
  neointimal area: no significant effect
platelets; 10-15 μM quercetin
  reduction of serotonin release: 40-50%
Platelet activation
  reduction of plasma TXB2 levels: 40%
Macrophages [2]; 10 μM quercetin
  reduction of iNOS protein: ~75%
Macrophages [2]; 15 μM quercetin
  reduction of iNOS protein: ~90%
Macrophages [3]
  IC50: 2.4 µM
VSMC [4]; 75 μg/cm^2, particulate (open) or smooth (closed) matrix
  inhibition of VSMC proliferation: significantly inhibited proliferation
[5]
  solubility in water: practically insoluble

## Oc1ccc(C=Cc2cc(O)cc(O)c2)cc1 [resveratrol]
[1]
  neointimal area: dramatically reduced
VSMC [6]; read-out: EC50 for inhibiting DNA synthesis
  EC50: 18 µM
VSMC [6]; read-out: EC50 for reducing numbers of cells
  EC50: 25 µM
platelets; 18 μM resveratrol
  reduction of serotonin release: ~60%
Platelet activation
  reduction of plasma TXB2 levels: no significant effect
Macrophages [2]; 18 μM resveratrol
  reduction of iNOS protein levels: ~25%
Macrophages [3]
  IC50: 3.5 µM
VSMC [4]; smooth (closed) matrix, 100 μg/cm^2 loading
  inhibition of VSMC proliferation: significantly inhibited proliferation
[7]; at 28 days
  total drug loaded that had eluted: 5-10%
[7]; medium 37° C., 28 d
  eluted concentration of resveratrol: low micromolar concentrations
[7]; regardless of morphology, medium 37° C.
  release from 100 mg/cm^2 coated flat relative to 50 mg/cm^2-coated flat: approximately 4 fold
NFκB
  inhibition of NFκB activation: very potently
ER-alpha
  binding affinity: lower binding affinity than estradiol
